Patent US12029751B2, “Therapeutic agent for nervous system disease” (OSAKA UNIVERSITY, priority 2017, dated 2024)

Test system: rat sciatic nerve crush injury model
Experiment: Macrophage phenotypes after sciatic nerve injury (immunohistological evaluation, rat sciatic nerve crush injury model)
Type: in vivo
Parameters: Number of M2 macrophages: unit: per mm^2
Protocol: Effects of methylcobalamin on macrophage phenotypes after sciatic nerve injury were analyzed by an immunohistological evaluation method. Specifically, the analysis was carried out as follows. Using transverse nerve sections at 2.5 mm in the proximal direction, at the injury site, and at 2.5, 5.0, and 7.5 mm in the distal direction, macrophages were evaluated by immunofluorescence staining at 1, 3, 7, and 14 days after sciatic nerve injury. The proximal direction refers to a cell body side of an axon with respect to an injury site, and the distal direction refers to a terminal side of an axon with respect to an injury site. Each of the distances indicates a distance from the injury site (the same applies to Example 8). Macrophages were labeled with CD68, an M1 marker iNOS, and an M2 marker CD206. The proportion of M1 macrophage was calculated by the following formula: Proportion of M1 macrophage (%)=number of M1-marker positive macrophages per mm^2/number of macrophages per mm^2×100. A more detailed description will be provided below.
Six-week-old male Wistar rats (about 200 g) were used. The left sciatic nerve was exteriorized, and crush injury of the sciatic nerve was made on the proximal side by forceps. The nerve was crushed for 10 seconds three times at 10-second intervals. The fascia and skin were sutured using 3-0 nylon. A non-injury group which underwent only sciatic nerve exposure, an untreated group, and a methylcobalamin treatment group were compared. To administer methylcobalamin continuously, an osmotic minipump was placed and left in the dorsal subcutaneous space, and methylcobalamin was administered at a dose of 1 mg/kg/day. In an untreated group, physiological saline was administered instead of methylcobalamin according to the same procedure.
At 1, 3, 7, and 14 days after the surgery, rats were anesthetized with an anesthetic agent. The left sciatic nerve was collected, fixed with 4% PFA for 7 days and with 20% sucrose for 24 hours, and the fixed nerve was freeze-embedded. The embedded tissue was sliced into a 5-μm-thick slice in a nerve short-axis direction and placed on a glass slide. Slices were obtained from 5 positions of 2.5 mm in the proximal direction from an injured region, the injured region, and 2.5, 5.0, and 7.5 mm in the distal direction. The slices were dried for 1 hour and fixed with 95% methanol for 30 minutes. The fixed slices were blocked and allowed to react with primary antibodies at 4° C. overnight. The cells were further allowed to react with a secondary antibody at room temperature for 1 hour so that the nuclei were labeled with DAPI.
The primary antibodies used were a mouse anti-CD68 monoclonal antibody (Abcam), a rabbit anti-iNOS monoclonal antibody (Abcam), a rabbit anti-CD206 monoclonal antibody (Abeam), a rabbit anti-neurofilament 200 (NF 200) polyclonal antibody (SIGMA), and a mouse anti-myelin basic protein (MBP) monoclonal antibody (Calbiochem). The secondary antibodies used were an Alexa 488-labeled goat anti-mouse IgG antibody (Life Technologies), an Alexa 488-labeled goat anti-rabbit IgG antibody (Life Technologies), an Alexa 568-labeled goat anti-mouse IgG antibody (Life Technologies), and an Alexa 568-labeled goat anti-rabbit IgG antibody (Life Technologies).

[1] = POD1, 2.5 mm in the distal direction, 1 mg/kg/day
[2] = POD1, 2.5 mm in the proximal direction, 1 mg/kg/day
[3] = POD1, 5.0 mm in the distal direction, 1 mg/kg/day
[4] = POD1, 7.5 mm in the distal direction, 1 mg/kg/day
[5] = POD3, 2.5 mm in the distal direction, 1 mg/kg/day
[6] = POD3, 2.5 mm in the proximal direction, 1 mg/kg/day
[7] = POD3, 5.0 mm in the distal direction, 1 mg/kg/day
[8] = POD3, 7.5 mm in the distal direction, 1 mg/kg/day
[9] = POD7, 2.5 mm in the distal direction, 1 mg/kg/day
[10] = POD7, 2.5 mm in the proximal direction, 1 mg/kg/day
[11] = POD7, 5.0 mm in the distal direction, 1 mg/kg/day
[12] = POD7, 7.5 mm in the distal direction, 1 mg/kg/day
[13] = POD14, 2.5 mm in the distal direction, 1 mg/kg/day
[14] = POD14, 2.5 mm in the proximal direction, 1 mg/kg/day
[15] = POD14, 5.0 mm in the distal direction, 1 mg/kg/day
[16] = POD14, 7.5 mm in the distal direction, 1 mg/kg/day
[17] = POD14, Injury site, 1 mg/kg/day

C/C1=C2/[N-][C@H]([C@H](CC(N)=O)[C@@]2(C)CCC(=O)NC[C@@H](C)OP(=O)([O-])O[C@H]2[C@@H](O)[C@@H](n3cnc4cc(C)c(C)cc43)O[C@@H]2CO)[C@]2(C)N=C(/C(C)=C3N=C(/C=C4N=C1[C@@H](CCC(N)=O)C\4(C)C)[C@@H](CCC(N)=O)[C@]\3(C)CC(N)=O)[C@@H](CCC(N)=O)[C@]2(C)CC(N)=O.[CH3-].[Co+3] [MeCbl, methylcobalamin]
Number of M2 macrophages (POD1, 2.5 mm in the distal direction): 46.53
M1 macrophage ratio [1]: 0.183
M2 macrophage ratio [1]: 0.658
Number of M1 macrophages [1]: 10.27 per mm^2
Number of macrophages [1]: 64.37 per mm^2
Number of M2 macrophages (POD1, 2.5 mm in the proximal direction): 32.72
M1 macrophage ratio [2]: 0.095
M2 macrophage ratio [2]: 0.743
Number of M1 macrophages [2]: 3.42 per mm^2
Number of macrophages [2]: 40.53 per mm^2
Number of M2 macrophages (POD1, 5.0 mm in the distal direction): 33.90
M1 macrophage ratio [3]: 0.109
M2 macrophage ratio [3]: 0.765
Number of M1 macrophages [3]: 4.40 per mm^2
Number of macrophages [3]: 43.67 per mm^2
Number of M2 macrophages (POD1, 7.5 mm in the distal direction): 32.83
M1 macrophage ratio [4]: 0.097
M2 macrophage ratio [4]: 0.777
Number of M1 macrophages [4]: 3.21 per mm^2
Number of macrophages [4]: 35.68 per mm^2
Number of M2 macrophages (POD1, Injury site): 139.28
M1 macrophage ratio (POD1, Injury site, 1 mg/kg/day): 0.195
M2 macrophage ratio (POD1, Injury site, 1 mg/kg/day): 0.431
Number of M1 macrophages (POD1, Injury site, 1 mg/kg/day): 63.55 per mm^2
Number of macrophages (POD1, Injury site, 1 mg/kg/day): 336.86 per mm^2
Number of M2 macrophages (POD3, 2.5 mm in the distal direction): 147.74
M1 macrophage ratio [5]: 0.165
M2 macrophage ratio [5]: 0.693
Number of M1 macrophages [5]: 23.50 per mm^2
Number of macrophages [5]: 181.38 per mm^2
Number of M2 macrophages (POD3, 2.5 mm in the proximal direction): 43.76
M1 macrophage ratio [6]: 0.068
M2 macrophage ratio [6]: 0.708
Number of M1 macrophages [6]: 3.04 per mm^2
Number of macrophages [6]: 48.52 per mm^2
Number of M2 macrophages (POD3, 5.0 mm in the distal direction): 117.16
M1 macrophage ratio [7]: 0.145
M2 macrophage ratio [7]: 0.659
Number of M1 macrophages [7]: 13.13 per mm^2
Number of macrophages [7]: 135.88 per mm^2
Number of M2 macrophages (POD3, 7.5 mm in the distal direction): 115.48
M1 macrophage ratio [8]: 0.186
M2 macrophage ratio [8]: 0.694
Number of M1 macrophages [8]: 15.57 per mm^2
Number of macrophages [8]: 124.99 per mm^2
Number of M2 macrophages (POD3, Injury site): 603.12
M1 macrophage ratio (POD3, Injury site, 1 mg/kg/day): 0.163
M2 macrophage ratio (POD3, Injury site, 1 mg/kg/day): 0.479
Number of M1 macrophages (POD3, Injury site, 1 mg/kg/day): 198.96 per mm^2
Number of macrophages (POD3, Injury site, 1 mg/kg/day): 1261.77 per mm^2
Number of macrophages (POD3, Injury site, 1 mg/kg/day, listed as methylcobalamin): significantly decreased
Number of M2 macrophages (POD7, 2.5 mm in the distal direction): 457.16
M1 macrophage ratio [9]: 0.043
M2 macrophage ratio [9]: 0.463
Number of M1 macrophages [9]: 37.09 per mm^2
Number of macrophages [9]: 921.92 per mm^2
Number of M2 macrophages (POD7, 2.5 mm in the proximal direction): 26.25
M1 macrophage ratio [10]: 0.049
M2 macrophage ratio [10]: 0.642
Number of M1 macrophages [10]: 1.54 per mm^2
Number of macrophages [10]: 36.63 per mm^2
Number of M2 macrophages (POD7, 5.0 mm in the distal direction): 432.13
M1 macrophage ratio [11]: 0.039
M2 macrophage ratio [11]: 0.505
Number of M1 macrophages [11]: 25.29 per mm^2
Number of macrophages [11]: 763.17 per mm^2
Number of M2 macrophages (POD7, 7.5 mm in the distal direction): 327.16
M1 macrophage ratio [12]: 0.045
M2 macrophage ratio [12]: 0.506
Number of M1 macrophages [12]: 22.71 per mm^2
Number of macrophages [12]: 584.14 per mm^2
Number of M2 macrophages (POD7, Injury site): 654.63
M1 macrophage ratio (POD7, Injury site, 1 mg/kg/day): 0.046
M2 macrophage ratio (POD7, Injury site, 1 mg/kg/day): 0.571
Number of M1 macrophages (POD7, Injury site, 1 mg/kg/day): 47.56 per mm^2
Number of macrophages (POD7, Injury site, 1 mg/kg/day): 1096.37 per mm^2
Number of macrophages (POD7, Injury site, 1 mg/kg/day, listed as methylcobalamin): significantly decreased
Number of M2 macrophages (POD14, 2.5 mm in the distal direction): 443.91
M1 macrophage ratio [13]: 0.033
M2 macrophage ratio [13]: 0.459
Number of M1 macrophages [13]: 27.86 per mm^2
Number of macrophages [13]: 898.81 per mm^2
Number of M2 macrophages (POD14, 2.5 mm in the proximal direction): 35.65
M1 macrophage ratio [14]: 0.039
M2 macrophage ratio [14]: 0.638
Number of M1 macrophages [14]: 2.34 per mm^2
Number of macrophages [14]: 51.79 per mm^2
Number of M2 macrophages (POD14, 5.0 mm in the distal direction): 434.68
M1 macrophage ratio [15]: 0.029
M2 macrophage ratio [15]: 0.487
Number of M1 macrophages [15]: 22.35 per mm^2
Number of macrophages [15]: 827.51 per mm^2
Number of M2 macrophages (POD14, 7.5 mm in the distal direction): 417.86
M1 macrophage ratio [16]: 0.024
M2 macrophage ratio [16]: 0.487
Number of M1 macrophages [16]: 15.59 per mm^2
Number of macrophages [16]: 752.29 per mm^2
Number of M2 macrophages (POD14, Injury site): 560.45
M1 macrophage ratio [17]: 0.025
M2 macrophage ratio [17]: 0.610
Number of M1 macrophages [17]: 21.33 per mm^2
Number of macrophages [17]: 899.57 per mm^2
Number of macrophages (POD14, Injury site, 1 mg/kg/day, listed as methylcobalamin): significantly decreased
numbers of M1 macrophages as compared to the untreated group (all evaluation days (1, 3, 7, 14 days), 1 mg/kg/day): significantly decreased
numbers of M1 macrophages as compared to the untreated group (distal portions, 7 and 14 days after the surgery, 1 mg/kg/day): significant differences
number of macrophages as compared to the untreated group (distal positions, 14 days after the surgery, 1 mg/kg/day): significant difference
numbers of M2 macrophages as compared to the untreated group (injury site, 1, 7 and 14 days after the surgery, 1 mg/kg/day): significantly increased
